Test results taken from paper PMC6080781, “ATP competes with PIP2 for binding to gelsolin” (PLoS ONE, 2018).
pKd: −log10 of the molar value.

Columns and labels:
gelsolin [1] = molecular target: T1, gelsolin (Homo sapiens, UniProt P06396); assay: Confocal microscopy of Alexa488-labeled gelsolin on PIP2-containing phospholipid vesicles; conditions: 0.5 mM ATP, absence of divalent cations
T1 construct: His tag (cleaved yes); made in house; host or cells: E. coli Rosetta2 (DE3) pLysS, pSY5 plasmid
Protocol: Phospholipid vesicles were prepared by a modified protocol from James H. Morrissey, Dept. of Biochemistry, University of Illinois at Urbana-Champaign, Urbana, IL 61801, USA (https://tf7.org). A mixture of 1% PIP2 (PtdIns-(4,5)-P2(1,2-dipalmitoyl)) (Cayman Chemicals), 79% PC (L-α-phosphatidylcholine) (Sigma-Aldrich) and 20% PS (3-sn-phosphatidyl-L-serine) (Sigma-Aldrich) was dissolved in 20 μM rhodamine 590 N-succinimidyl ester (Sigma-Aldrich) in chloroform. […]
10% (v/v) rhodamine590-filled phospholipid vesicles and 5 μM Alexa488-labeled gelsolin were incubated together and a drop of the mixture was placed on a clean glass slide, which was then covered by and separated from a second slide by a parafilm gasket. […] Fluorescence emission-based imaging was carried out using a Zeiss LSM 510 META Confocal Microscope. The two different fluorophores were detected in two separate channels; Alexa488 (gelsolin) was excited by 477 nm laser light and emission was detected in the 505–530 nm channel, while rhodamine590 (phospholipid vesicles) was excited by 545 nm laser light and emission was detected in the 585–630 nm channel.

gelsolin [2] = molecular target: T1, gelsolin; assay: Steady-state fluorescence anisotropy of PIP2-F binding to gelsolin; conditions: 5 μM gelsolin
Protocol: His-tagged human wild-type gelsolin was expressed in E. coli strain Rosetta2 (DE3) pLysS cells from a pSY5 plasmid. […] Traces of calcium were removed by dialysis (2 mM Tris-HCl, 1 mM EGTA, pH 7.4, overnight). Rabbit skeletal muscle actin was prepared from acetone powder (Pel-Freez Biologicals) in a protocol modified from Spudich and Watt. Actin was stored in buffer A (2 mM Tris-HCl, 0.2 mM ATP (ATP disodium trihydrate, Sigma-Aldrich), 0.1 mM CaCl2 (pCa 4), 0.1 mM DTT and 0.005% NaN3, pH 7.4). Alexa Fluor^TM 488 C5 Maleimide (Life Technologies) was used to label cysteine residues of gelsolin based on the manufacturer’s recommendations (Thermo Fisher Scientific).
We used a fluorescent derivative of PIP2 (PtdIns-(4,5)-P2-fluorescein, Cayman Chemicals, NU-10010388, λex = 493 nm, λem = 520 nm, abbreviated as PIP2-F) and a fluorescent derivative of ATP (N^6-(6-amino)hexyl-ATP-ATTO-532, Jena Bioscience, NU-805-532, λex = 532 nm, λem = 553 nm, abbreviated as ATP-N) as probes for the binding of PIP2 and ATP to gelsolin. Fluorescence intensities were measured on a Safire^2 monochromator microplate reader (TECAN) at 22°C. Steady-state fluorescence anisotropy values were determined according to Eq 1 [65], where IVV and IVH, respectively, are the intensities of vertically and horizontally polarized emission on excitation with vertically polarized light, with the correction factor, G, being the ratio of IVH/IVV.
The dissociation constants for ATP and PIP2 were calculated using a hyperbolic model from anisotropy data that had reached saturation during the gelsolin titrations Eq 2: r=rf+(rb−rf)(Kd+[G]+[L]−(Kd+[G]+[L])^2−4[G][L]/2[L]) (2) where rf is the anisotropy of free ligand, rb is the anisotropy of gelsolin-bound ligand, [L] is the total concentration of ligand, Kd is the dissociation constant and [G] is the total concentration of gelsolin. The anisotropy of 0.5 μM ATP-N was measured in the presence of gelsolin concentrations: 0, 0.2, 1.5, 2, 3, 5 and 8 μM. […] The calcium and magnesium sensitivities of ATP binding to gelsolin were characterized by the change in anisotropy of solutions containing 0.5 μM ATP-N in the presence of 5 μM of gelsolin over a range of divalent cation concentrations of pCa 2–12 or pMg 1–12, where pCa and pMg refer to[…]. […] Anisotropy of 0.5 μM or 0.25 μM solutions of PIP2-F in the presence of 5 μM gelsolin was used to probe the changes in binding of the complexes under different calcium, magnesium, salt and ATP conditions.

calcium-free gelsolin = molecular target: calcium-free gelsolin; set-up: method as in PMID 10336615; conditions: cited from earlier work
gelsolin [3] = molecular target: T1, gelsolin; assay: Labeled/unlabeled ATP competition on gelsolin (ATP-N anisotropy); assay type: binding; conditions: absence of calcium
Protocol: The dissociation constants for ATP and PIP2 were calculated using a hyperbolic model from anisotropy data that had reached saturation during the gelsolin titrations Eq 2: r=rf+(rb−rf)(Kd+[G]+[L]−(Kd+[G]+[L])^2−4[G][L]/2[L]) (2) where rf is the anisotropy of free ligand, rb is the anisotropy of gelsolin-bound ligand, [L] is the total concentration of ligand, Kd is the dissociation constant and [G] is the total concentration of gelsolin. The anisotropy of 0.5 μM ATP-N was measured in the presence of gelsolin concentrations: 0, 0.2, 1.5, 2, 3, 5 and 8 μM. Saturation was evident at 5 μM characterized by an anisotropy value of 0.15 ± 0.006. […]
Supplementary file pone.0201826.s002.pdf: S2 Fig ATP binding to gelsolin under actin polymerization conditions. (A) The calcium-dependent gelsolin binding affinity for ATP under actin polymerization conditions was determined by monitoring the change in ATP-N anisotropy on gelsolin titration at different calcium ion concentrations. Each data point arises from the Kd calculated from a titration similar to Fig 1A. […] (B) The anisotropy of ATP-N (0.5 μM) bound to gelsolin (5 μM) was measured upon titrating with unlabeled ATP in the absence of calcium. […]

gelsolin [4] = conditions: equilibrium dialysis, high NaCl concentrations; read-out: dissociation constant for gelsolin; cited from earlier work
[5] = Critical micelle concentration by dynamic light scattering; assay type: physicochemical
Protocol: tested, PIP2-F was free from micelle formation at concentrations of 0.5 µM or below, whereas […]
Methods: The critical micelle concentrations of PIP2 and 1-(1-octadecanoyl-fluorescein-2R-octadecanoylphosphatidyl)inositol-4,5-bisphosphate (Cayman Chemical, abbreviated as PIP2-F) were determined by dynamic light scattering (Huang et al., 2011). Fifty microliter samples were prepared by serial dilution of PIP2 or PIP2-F into a low salt buffer (2 mM Tris-HCl, pH 7.4), or the same buffer supplemented with 100 mM KCl, 1 mM MgCl2, and/or 1 mM CaCl2. After incubation for 30 min, the samples were centrifuged at 15,000 x g for 10 min, transferred into a 384-well clear bottom plate, and light scattering was measured using a Wyatt Dynapro plate reader at room temperature. The concentrations of PIP2-F were subsequently determined by light absorbance at 494 nm with a Nanodrop spectrophotometer. […]
Huang, W., Jiang, D., Wang, X., Wang, K., Sims, C. E., Allbritton, N. L. and Zhang, Q.

[6] = Calcium-dependent fluorescence emission of FURA-2FF; assay type: binding; conditions: inferred from unchanged FURA-2FF profile with 20 μM PIP2
Protocol: Supplementary file pone.0201826.s005.pdf: S5 Fig Assessment of the effects of calcium and ATP on the binding of ATP-N and PIP2-F to gelsolin. (A) Kds were calculated from the fit data with Eq 2 of gelsolin:PIP2-F binding under different calcium concentrations in the absence or presence of ATP. In the absence of ATP, PIP2-F (0.5 μM) binds to gelsolin, as reflected by thehigh affinity, across a wide range of calcium concentrations. […] (B) In the absence of gelsolin, calcium directly precipitates ATP-N (C, open triangles) with a half-maximum value of 70.4 ± 0.7 μM. Magnesium has no effect on the fluorescence emission of ATP-N either in the absence (M, orange circles) or presence of 10 μM calcium (MC, purple squares). Data were fitted with simple sigmoidal curves. (C) The reported FURA-2FF dissociation constant for calcium ions is 25 μM (A.G. Scientific Inc.). The calcium-dependent fluorescence emission profile of FURA-2FF (2 μM) over pCa range of 5–7 was similar in the presence and absence of 20 μM PIP2, which were fitted with simple sigmoidal curves. […] The measurement was carried out with a Perkin Elmer LS-55 spectrofluorimeter (λex = 340 nm, λem = 505 nm). (PDF) Click here for additional data file.

T1 sequence (P06396 28-782): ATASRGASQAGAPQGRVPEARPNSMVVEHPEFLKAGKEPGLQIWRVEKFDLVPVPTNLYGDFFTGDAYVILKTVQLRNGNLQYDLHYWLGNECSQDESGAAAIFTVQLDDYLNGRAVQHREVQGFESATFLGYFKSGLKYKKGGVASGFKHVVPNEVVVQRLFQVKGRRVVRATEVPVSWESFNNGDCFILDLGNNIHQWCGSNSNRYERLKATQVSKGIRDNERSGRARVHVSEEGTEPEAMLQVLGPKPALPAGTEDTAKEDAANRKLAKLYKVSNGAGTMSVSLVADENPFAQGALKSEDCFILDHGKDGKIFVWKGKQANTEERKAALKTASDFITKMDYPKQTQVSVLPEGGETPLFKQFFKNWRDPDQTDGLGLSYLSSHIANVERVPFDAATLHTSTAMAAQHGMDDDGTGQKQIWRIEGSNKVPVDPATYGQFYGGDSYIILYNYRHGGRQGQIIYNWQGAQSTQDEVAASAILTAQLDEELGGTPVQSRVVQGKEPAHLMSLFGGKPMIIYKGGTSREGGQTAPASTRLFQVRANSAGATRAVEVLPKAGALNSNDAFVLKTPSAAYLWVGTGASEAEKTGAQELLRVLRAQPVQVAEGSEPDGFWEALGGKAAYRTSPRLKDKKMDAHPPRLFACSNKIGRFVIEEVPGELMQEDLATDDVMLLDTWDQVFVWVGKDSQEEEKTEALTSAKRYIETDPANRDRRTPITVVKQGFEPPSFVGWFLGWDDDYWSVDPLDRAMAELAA

ATP concentration sufficient to remove the gelsolin bound ATP-N (gelsolin [3]; 0.5 μM ATP-N, 5 μM gelsolin) [µM]	pKd (gelsolin [3]; 50 mM KCl, 1 mM MgCl2 (actin polymerizing salt), competition with ATP-N)	CMC of PIP2 ([5]; 100 mM KCl and 1 mM MgCl2, nominal concentrations) [µM]	CMC of PIP2 ([5]; 100 mM KCl, nominal concentrations) [µM]	CMC of PIP2 ([5]; absence of cations, nominal concentrations) [µM]	CMC of PIP2 ([5]; calcium in the buffer, considered an overestimation)	pKd [6]	Molecule	release of gelsolin-Alexa488 from PIP2-containing vesicles (gelsolin [1])	effect of ATP on PIP2-F anisotropy (gelsolin [2]; 0.5 mM ATP, 0.25 μM PIP2-F, 100 mM K+, 1 mM Mg2+, entire calcium range, absence and presence of 50 μM actin)	effect of ATP on the gelsolin/PIP2-F complex (gelsolin [2]; 0.2 or 0.5 mM ATP, 0.5 μM PIP2-F)	pKd (calcium-free gelsolin; Gremm and Wegner, read-out: Kd of calcium-free gelsolin for ATP)	ATP binding to gelsolin (calcium-free gelsolin; solutions with more than 10 μM Ca2+ (pCa 5))	pKd (gelsolin [4])
50	5.66	–	–	–	–	–	Nc1ncnc2c1ncn2[C@@H]1O[C@H](COP(=O)(O)OP(=O)(O)OP(=O)([O-])[O-])[C@@H](O)[C@H]1O.O.O.O.[Na+].[Na+] [ATP, ATP disodium trihydrate]	the majority of gelsolin-Alexa488 was released from the vesicles	almost complete loss of PIP2-F anisotropy	complete dissociation of the gelsolin/PIP2-F complex	4.49	No ATP binding to gelsolin is detectable	6.55
–	–	< 1	2	20	~ 10 μM	≤ 4.60	phosphatidylinositol 4,5-bisphosphate [PIP2]	–	–	–	–	–	–
